Reference: US4766126A, “Process for treatment of nephritis with imidazoquinazolines” (Daiichi Seiyaku Co., Ltd., priority 1986, dated 1988)
Entries after “also recorded” stand apart in the source; their conditions may differ. Counter-ions that a name gives are not always drawn.

What was measured:
[1] = test system: lupus nephritis (proteinuria) in NZB/WF1 mice; experiment: Urinary protein in NZB/WF1 mouse (spontaneous lupus nephritis); type: in vivo
Method: (§1) The present invention will now be illustrated by way of experiment examples. In these examples, the drug of interest was dissolved in a 0.5 wt% aqueous solution of carboxymethyl cellulose and administered to test animals in an amount of 0.1 ml per 10 g of the body weight.
Ten animals clearly showing proteinuria were chosen from 32-week-old NZB/WF1 mice (female, Jackson) and divided into two groups (5 animals per group) taking the protein level in urine as a guide.
DN-9693 was continuously administered orally one or two times per day at a dose of 1 mg/kg, and influences on changes of urinary protein level were examined.
Thus, the activity to lower protein in urine was recognized also in spontaneously occurring lupus nephritis.

[2] = test system: anti-erythrocyte antibody (auto-antibody) in BDF1 mice; experiment: Auto-antibody production in mouse induced by GVHR (anti-erythrocyte antibody titre, direct Coombs' test); type: in vivo
Method: (§2) When an animal of a first filial generation is implanted with lymphatic cells of its parent's line, a graft-versus-host reaction (hereinafter abbreviated as GVHR) takes place to thereby produce an auto-antibody and induce chronic immune-complex (IC) type nephritis.
as §1
(§3) Into BDF1 mice (female; 7-week-old; Nippon Charles River) were intravenously implanted twice spleen cells (6×10^7 cells) and thymus cells (3×10^7 cells) taken from DBA/2 mice (female; 7-week-old; Nippon Charles River) of their parent's line on the 0 day and the 5th day to thereby induce GVHR. DN-9693 was orally given at a dose level of 1 mg/kg in a single dose per day for consecutive 44 days from the 6th day to the 49th day. After 2 weeks from the first implantation of cells, the protein in urine and the anti-erythrocyte antibody titre were determined at one week intervals. The protein in urine and the antibody titre were determined by the modified one step Exton method and the direct Coombs' test method, respectively, in accordance with the following procedures:
Direct Coombs' Test Method
1. Blood samples (50 μl) were obtained from the orbital veniplex of the experimental animals (mice) using a heparinized hematocrit tube.
2. The erythrocytes were washed three times by centrifugation (2,500 r.p.m. for 6 minutes) with a phosphoric acid-buffered physiological saline containing 0.3 wt% bovine serum albumin (0.3% BSA-PBS).
3. The erythrocytes were suspended in 0.3% BSA-PBS to prepare a 1 wt% mouse erythrocyte suspension.
4. The erythrocyte suspension (50 μl) was added to 50 μl of rabbit anti-mouse Ig (MBL) in a two-fold serial dilution placed in a microplate. After shaking, the system was allowed to stand at 37° C. for 1 hour and then at room temperature for 2 hours. The state of agglutination was observed.
5. The maximum dilution of the rabbit anti-mouse Ig that gave a positive agglutination was expressed as 10×2^n, and the value n was taken as an antibody titre.

[3] = test system: GVHR-induced nephritis (proteinuria) in BDF1 mice; experiment: GVHR-induced proteinuria in mouse (urinary protein by modified one step Exton method); type: in vivo
Method: as §2, §1, §3
Modified One Step Exton Method
1. Test urine and an albumin standard preparation were placed in a microplate in 10 μl portions.
2. To each hole was added 200 μl of a reagent prepared by dissolving 15 g of sulfosalicylic acid, 20 g of anhydrous sodium sulfate, 5 mg of Bromophenol Blue, and 0.1 g of carboxymethyl cellulose in one liter of water. After stirring to mix, the system was allowed to stand at room temperature.
3. Ten minutes later, the absorbance at 690 nm was measured using the system comprising the reagent alone as a blank.
4. The protein in urine was calculated from a calibration curve.

[4] = test system: nephritis of acute serum sickness; conditions: Clin. Exp. Immunol., Vol. 61, 388-396 (1985); cited from earlier work
[5] = 1 mg/kg p.o., in words, monohydrate

SMILES	Effect on urinary protein (spontaneous lupus nephritis) ([1]; 1 mg/kg p.o. one or two times per day, in words, monohydrate)	Number of survivors, 0 Week (32) ([1]; of 5 animals, 0 week, control 5)	Number of survivors, 1 Week (33) ([1]; of 5 animals, 1 week, control 5)	Number of survivors, 2 Weeks (34) ([1]; of 5 animals, 2 weeks, control 4)	Urinary Protein Index (Mean ± S.E.), 0 Week (32) ([1]; protein level after/before administration, 1 mg/kg p.o. one or two times per day, 0 week (32-week-old), control 1.0)	Urinary Protein Index (Mean ± S.E.), 1 Week (33) ([1]; protein level after/before administration, 1 mg/kg p.o. one or two times per day, 1 week (33-week-old), control 7.0 ± 5.9)	Urinary Protein Index (Mean ± S.E.), 2 Weeks (34) ([1]; protein level after/before administration, 1 mg/kg p.o. one or two times per day, 2 weeks (34-week-old), control 4.8 ± 2.9)	Anti-Erythrocyte Antibody Titre (Mean ± S.E.), 3rd Week ([2]; 1 mg/kg p.o. once daily day 6-49, n=7, titre n: 10 × 2^n, 3rd week from first cell implantation, control 6.3 ± 1.0)	Anti-Erythrocyte Antibody Titre (Mean ± S.E.), 4th Week ([2]; 1 mg/kg p.o. once daily day 6-49, n=7, titre n: 10 × 2^n, 4th week from first cell implantation, control 5.4 ± 0.6)	Anti-Erythrocyte Antibody Titre (Mean ± S.E.), 5th Week ([2]; 1 mg/kg p.o. once daily day 6-49, n=7, titre n: 10 × 2^n, 5th week from first cell implantation, control 4.9 ± 1.3)	Anti-Erythrocyte Antibody Titre (Mean ± S.E.), 6th Week ([2]; 1 mg/kg p.o. once daily day 6-49, n=7, titre n: 10 × 2^n, 6th week from first cell implantation, control 2.9 ± 1.5)	Anti-Erythrocyte Antibody Titre (Mean ± S.E.), 7th Week ([2]; 1 mg/kg p.o. once daily day 6-49, n=7, titre n: 10 × 2^n, 7th week from first cell implantation, control 1.9 ± 1.2)	Influence on production of auto-antibody / immune inhibitory activity [2, 5]	Effect on urinary protein (GVHR-induced nephritis) [3, 5]	Urinary Protein Score (Mean ± S.E.), 4th Week ([3]; DN-9693 1 mg/kg p.o. once daily day 6-49, n=7, 4th week from first cell implantation, control 0.2 ± 0.1, score 0 (<=1 mg/ml) to 4 (>=30 mg/ml and ascitic positive))	Urinary Protein Score (Mean ± S.E.), 5th Week ([3]; DN-9693 1 mg/kg p.o. once daily day 6-49, n=7, 5th week from first cell implantation, control 0.8 ± 0.4, score 0 to 4)	Urinary Protein Score (Mean ± S.E.), 6th Week ([3]; DN-9693 1 mg/kg p.o. once daily day 6-49, n=7, 6th week from first cell implantation, control 1.8 ± 0.7, score 0 to 4)	Urinary Protein Score (Mean ± S.E.), 7th Week ([3]; DN-9693 1 mg/kg p.o. once daily day 6-49, n=7, 7th week from first cell implantation, control 2.3 ± 0.6, S.E. 0.4 printed on next line, significantly different from control (P < 0.05), score 0 to 4)	Protection of nephritis [4]
O=C1CN2Cc3cc(N4CCCCC4)ccc3N=C2N1 [DN-9693, 7-piperidino-1,2,3,5-tetrahydroimidazo[2,1-b]quinazolin-2-onedihydrochloride monohydrate]	the increase of urinary protein level is inhibited; also recorded: reduction of protein in the urine	5	5	5	1.1	1.2 ± 0.2	1.6 ± 0.6	6.6 ± 0.6	5.6 ± 0.2	3.6 ± 1.1	3.9 ± 1.1	3.1 ± 1.0	did not influence the production of an auto-antibody; also recorded: possesses no immune inhibitory activity; also recorded: does not decrease the Coombs antibody titre	exhibited an effect to decrease protein in urine; also recorded: urinary protein decreasing effect; also recorded: significantly inhibits an increase of urinary protein	0.3 ± 0.1	0.1 ± 0.1	0.4 ± 0.4	0.6	
N=C(N)c1ccc2cc(OC(=O)c3ccc(N=C(N)N)cc3)ccc2c1 [FUT-175, dihydrochloride]																			protection of nephritis
OCCN(CCO)c1nc(N2CCCCC2)c2nc(N(CCO)CCO)nc(N3CCCCC3)c2n1 [dipyridamole, 2,6-bis(diethanolamino)-4,8-dipiperidinopyrimido[5,4,-d]pyrimidine]																			protection of nephritis
